Assay results published in BindingDB's records for doi:10.1016/j.ejmech.2020.113116 (University of Pisa, 2021).

Assays:
[1] = Positive allosteric modulator activity at human CB2R expressed in CHO-K1 cell membrane assessed as CP55940 EC50 for [35S]GTPgammaS binding at 100 nM measured after 90 mins by liquid scintillation counting analysis (Rvb = 1.9 nM)
[2] = Positive allosteric modulator activity at human CB2R expressed in CHO-K1 cell membrane assessed as CP55940 EC50 for [35S]GTPgammaS binding at 1 nM measured after 90 mins by liquid scintillation counting analysis (Rvb = 1.9 nM)

Row | EC50 [1] [nM] | EC50 [2] [nM] | SMILES
1 | 7 | 3.4 | Cc1c(Br)cn(Cc2ccccc2F)c(=O)c1NC(=O)C1CCCCCC1
2 | 2.4 | 2.6 | Cc1c(Br)cn(Cc2ccccc2Cl)c(=O)c1NC(=O)C1CCCCCC1
